Measured values from US10227324B2 (Shanghai Haiyan Pharmaceutical Technology Co., Ltd., priority 2014, dated 2019).
Read-outs that look alike come from different tables or passages of the source.

What was measured:
[1] = tested on: Akt phosphorylation (Ser473-p-Akt) in PC-3 cells; test: Inhibition of p-Akt phosphorylation level in PC-3 cells (cell level fluorescence imaging); assay type: cell-based; settings: Homo sapiens; Akt phosphorylation in PC-3 cells, 2 hours incubation; read-out: PC-3 cell (IC50/nM)
Experimental: This experiment was performed by cell level fluorescence image processing method.
Triton X-100: 10% aqueous Triton X-100 solution (Sigma T8787-100 mL) was prepared, stored at 4° C. and diluted by 1:100 to give 0.1% Triton X-100 aqueous solution for use in the experiment.
Prodium Iodide (PI): 1 mg/mL (1.5 mM) PI (Sigma P4170) storage solution was prepared with PBS and stored at −25° C. in the dark. For use, the PI storage solution was diluted with PBS by 1:1000 to give a 1.5 μM solution and used in dark.
PC-3 cells in logarithmic growth phase were digested with 0.25% EDTA trypsin. 3000 cells/90 μL were seeded in a 96-well plate (BD 356692) and cultured at 37° C. and 5% CO2. After the cells adhered, 10 μL of the compound to be tested which was gradiently diluted 3 times (0.0046 to 10 μM, 8 concentration points, in duplicate) was added and incubated for 2 hours, followed by addition of 100 μL of 4% paraformaldehyde (DINGGUO AR-0211) and incubated at room temperature for 45 minutes. Then 100 μL of 0.1% Triton X-100 solution was added and incubated for another 30 minutes.
Triton X-100 solution was removed and the cells were rinsed with 200 μl of PBS twice (300 rpm vibration for 1 minute). The blocking solution (1% BSA solution in PBS) (Genview FA016-100G) was added and incubated at room temperature for 2 hours. The plate was rinsed with PBS once (300 rpm, 1 min) and 30 μL of Ser473-p-Akt antibody (cell signaling 4060L) diluted with 0.1% BSA was added and incubated overnight at 4° C. Ser473-p-Akt antibody was removed and the plate was rinsed with PBS twice (300 rpm, 1 minute). 35 μL of Alexa Flour 488 donkey anti-rabbit IgG (Invitrogen A21206) was added and incubated at room temperature for 1.5 hours. The plate was rinsed with PBS twice (300 rpm, 1 minute) and 35 μL of 1.5 μM PI was added and incubated at room temperature for 0.5 h. The fluorescence intensity was measured with Acumen eX3 (TTP LabTech).
10 μM BEZ235 (Selleck S1009) treatment group was negative control and DMSO treatment group was positive control. Inhibition ratio %=[1−(the mean value of the fluorescence intensity of the compound to be tested−the mean value of the fluorescence intensity of the negative control group)/(the mean value of the fluorescence intensity of the positive control group−the mean value of the fluorescence intensity of the negative control group)]×100%

T47D cells = test: Cell inhibitory activity detected by MTT assay, T47D; assay type: cell-based; settings: Homo sapiens, T47D, 72 h, read-out: T47D cell (IC50/nM), cell growth inhibition
Experimental: (§1) The MTT assay procedure and steps were carried out as well known to those skilled in the art, and all the reagents used in the methods were commercially available. The cells in logarithmic growth phase were digested with 0.25% EDTA trypsin (Gibco, 25200-056) and resuspended in fresh medium. 90 μL of the cell suspension was inoculated into a 96-well cell culture plate (BD Faclon 353072) with a suitable cell density and cultured at 37° C. under 5% CO2. After the cells adhered, 10 μL of the test compound at different concentrations (0.0046-10 μM, 8 concentration points) was added and incubated for another 72 h. 10 μL of MTT (5 mg/mL PBS solution) (Sigma, M5655) was added to react for 4 h. The absorbance at 492 nm was measured by using Thermo Scientific Multiskan MK3 microplate reader and IC50 was calculated using XLFIT 5.0 software (UK IDBS). T47D cell culture medium: RPMI-1640 medium (Hyclone SH30809.01B)+10% FBS (Gibco 10099-141)

MCF-7 cells = test: Cell inhibitory activity detected by MTT assay, MCF-7; assay type: cell-based; settings: Homo sapiens, MCF7, 72 h, read-out: MCF-7 cell (IC50/nM), cell growth inhibition
Experimental: as §1, with “MCF-7” for “T47D”, “DMEM” for “RPMI-1640”, “SH30243.01B+10%” for “SH30809.01B)+10%”

NIH3T3 cells = test: Cytotoxicity by MTT assay, NIH3T3; assay type: cell-based; settings: Mus musculus, NIH3T3, 72 h, cytotoxicity class, read-out: NIH3T3 cell (IC50/nM)
Experimental: The MTT assay procedure and steps were carried out as well known to those skilled in the art, and all the reagents used in the methods were commercially available.
as §1, with “The” for “The MTT assay procedure and steps were carried out as well known to those skilled in the art, and all the reagents used in the methods were commercially available. The”, “IDBS).” for “IDBS). T47D cell culture medium: RPMI-1640 medium (Hyclone SH30809.01B)+10% FBS (Gibco 10099-141)”

[2] = molecular target: T1, PI3K-α kinase (p110α/p85α) (Homo sapiens, UniProt P42336); test: Determination of PI3K kinase activity (ADP Transcreener, fluorescence polarization); assay type: biochemical; settings: ATP 10 μM
T1 construct: purchased Invitrogen PV4788
Experimental: (§2) The inhibition of PI3K kinase activity by the compound to be tested was determined by the following method. The working concentration of each component in the 25 μL enzyme reaction system was: p110α/p85α 3 ng (or p110β/p85α 60 ng, or p110δ/p85α 90 ng, or p110γ 100 ng), ATP 10 μM, PIP2: PS (Invitrogen PV5100) 30 μM and the DMSO concentration was 2% after addition of the compound to be tested.
(§3) At the time of the test, the compound to be tested was dissolved in dimethylsulfoxide (DMSO) according to the desired concentration of the experiment. The compound to be tested was gradiently diluted 3 times (0.00046-1 μM, 8 concentration points) with 10% DMSO. 5 μL of the compound to be tested was added to each well of a 96-well plate (Greiner 675076) in duplicate. […] 10 μL of ATP/PIP2: PS and 10 μL of the PI3K enzyme working solution were added to each well in a 96-well plate. The plate was shaken and mixed uniformly, and then incubated at 25° C. for 1 hour. At the same time, ADP and ATP (0.01 μM, 0.02 μM, 0.04 μM, 0.06 μM, 0.08 μM[…], 0.1 μM, 0.25 μM, 0.5 μM, 1 μM, 2 μM, 5 μM, 10 μM, 12 concentration points) were diluted with buffer to set the standard curve. After completion of the enzyme reaction, 25 μL of ADP assay solution (1% 100×ADP tracer, 0.79% ADP antibody and 10% 10× reaction stop solution) was added and incubated at 25° C. for 1 hour. Fluorescence polarization value [mP] of each well was measured with a Perkin Elmer Victor X5 Fluorescent Microplate. The ADP concentration [ADP] was calculated from the ADP/ATP standard curve and the IC50 values were calculated using the XLFit software.

PI3K-γ kinase (p110γ) = molecular target: T2, PI3K-γ kinase (p110γ) (Homo sapiens, UniProt P48736); test: as above; assay type: biochemical; settings: Table 1; ATP 10 μM; read-out: PI3K-γ/nM (IC50 of inhibitory activity against PI3K kinase)
T2 construct: purchased Invitrogen PV4786
Experimental: The PI3K kinase used in the experiment: p110α/p85α (Invitrogen PV4788), p110β/p85α (Millipore 14-603), p110δ/p85α (Millipore 14-604M), and p110γ (Invitrogen PV4786).
as §2
as §3, with “duplicate. 2.5× buffer was prepared and 1 μL of DTT (Millipore 20-265) was added to each 800 μL of 2.5× buffer.” for “duplicate.”

[3] = molecular target: T3, PI3K-β kinase (p110β/p85α) (Homo sapiens, UniProt P42338); test: as above; assay type: biochemical; settings: Table 1; ATP 10 μM; read-out: PI3K-β/nM (IC50 of inhibitory activity against PI3K kinase)
T3 construct: purchased Millipore 14-603
Experimental: as §2, §3

[4] = molecular target: T4, PI3K-δ kinase (p110δ/p85α) (Homo sapiens, UniProt O00329); test: as above; assay type: biochemical; settings: Table 1; ATP 10 μM; read-out: PI3K-δ/nM (IC50 of inhibitory activity against PI3K kinase)
T4 construct: purchased Millipore 14-604M
Experimental: as §2, §3

[5] = Table 2, read-out: PI3K-α/nM (IC50 of inhibitory activity against PI3K-α kinase)
[6] = Table 1, read-out: PI3K-α/nM (IC50 of inhibitory activity against PI3K kinase)

T1 sequence (P42336 whole entry): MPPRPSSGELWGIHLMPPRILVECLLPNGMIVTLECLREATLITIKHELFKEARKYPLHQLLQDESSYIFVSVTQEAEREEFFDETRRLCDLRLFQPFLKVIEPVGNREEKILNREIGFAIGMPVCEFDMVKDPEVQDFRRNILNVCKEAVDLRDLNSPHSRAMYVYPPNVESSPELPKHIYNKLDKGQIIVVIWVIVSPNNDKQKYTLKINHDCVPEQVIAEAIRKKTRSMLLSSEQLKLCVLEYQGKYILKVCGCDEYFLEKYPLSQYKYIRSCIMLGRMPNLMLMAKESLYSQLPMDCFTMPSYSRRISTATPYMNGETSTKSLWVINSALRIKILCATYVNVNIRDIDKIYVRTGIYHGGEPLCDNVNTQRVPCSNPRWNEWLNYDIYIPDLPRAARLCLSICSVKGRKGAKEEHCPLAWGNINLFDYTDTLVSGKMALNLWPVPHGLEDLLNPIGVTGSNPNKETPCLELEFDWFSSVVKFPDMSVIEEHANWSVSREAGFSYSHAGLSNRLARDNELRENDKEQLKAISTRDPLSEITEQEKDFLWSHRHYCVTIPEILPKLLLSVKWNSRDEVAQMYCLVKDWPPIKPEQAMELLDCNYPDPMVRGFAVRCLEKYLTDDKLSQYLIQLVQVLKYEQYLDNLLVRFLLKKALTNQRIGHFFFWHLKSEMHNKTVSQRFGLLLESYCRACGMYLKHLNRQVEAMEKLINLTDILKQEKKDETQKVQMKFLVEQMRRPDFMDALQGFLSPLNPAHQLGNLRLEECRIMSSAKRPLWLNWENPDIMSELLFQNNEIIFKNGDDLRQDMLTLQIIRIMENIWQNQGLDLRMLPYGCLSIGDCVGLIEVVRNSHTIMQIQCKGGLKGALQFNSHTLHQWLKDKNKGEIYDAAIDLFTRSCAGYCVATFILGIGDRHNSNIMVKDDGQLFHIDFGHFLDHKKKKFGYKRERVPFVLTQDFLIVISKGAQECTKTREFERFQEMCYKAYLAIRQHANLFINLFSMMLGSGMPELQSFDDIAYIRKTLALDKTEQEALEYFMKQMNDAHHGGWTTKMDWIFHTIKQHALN
T1 sequence (P27986 whole entry partner): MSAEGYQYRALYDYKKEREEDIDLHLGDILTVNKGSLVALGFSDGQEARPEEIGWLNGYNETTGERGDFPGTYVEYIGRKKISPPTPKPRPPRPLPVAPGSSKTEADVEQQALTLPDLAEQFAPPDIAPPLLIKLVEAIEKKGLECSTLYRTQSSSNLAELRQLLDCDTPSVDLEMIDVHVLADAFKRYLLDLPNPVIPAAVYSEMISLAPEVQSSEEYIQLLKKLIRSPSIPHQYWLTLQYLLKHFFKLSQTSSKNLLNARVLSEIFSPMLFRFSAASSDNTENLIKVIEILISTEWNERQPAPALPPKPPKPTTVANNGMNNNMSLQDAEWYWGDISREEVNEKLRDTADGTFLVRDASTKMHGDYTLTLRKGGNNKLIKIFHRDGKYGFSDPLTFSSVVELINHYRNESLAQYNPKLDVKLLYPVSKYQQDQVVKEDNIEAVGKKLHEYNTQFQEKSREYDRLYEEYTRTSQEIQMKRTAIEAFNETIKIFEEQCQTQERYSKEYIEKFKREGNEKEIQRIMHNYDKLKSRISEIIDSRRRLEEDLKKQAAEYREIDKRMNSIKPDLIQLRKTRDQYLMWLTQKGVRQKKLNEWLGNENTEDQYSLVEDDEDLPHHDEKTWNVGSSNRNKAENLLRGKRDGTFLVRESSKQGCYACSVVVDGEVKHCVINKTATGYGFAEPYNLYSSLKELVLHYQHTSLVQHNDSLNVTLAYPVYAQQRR
T4 sequence (O00329 whole entry): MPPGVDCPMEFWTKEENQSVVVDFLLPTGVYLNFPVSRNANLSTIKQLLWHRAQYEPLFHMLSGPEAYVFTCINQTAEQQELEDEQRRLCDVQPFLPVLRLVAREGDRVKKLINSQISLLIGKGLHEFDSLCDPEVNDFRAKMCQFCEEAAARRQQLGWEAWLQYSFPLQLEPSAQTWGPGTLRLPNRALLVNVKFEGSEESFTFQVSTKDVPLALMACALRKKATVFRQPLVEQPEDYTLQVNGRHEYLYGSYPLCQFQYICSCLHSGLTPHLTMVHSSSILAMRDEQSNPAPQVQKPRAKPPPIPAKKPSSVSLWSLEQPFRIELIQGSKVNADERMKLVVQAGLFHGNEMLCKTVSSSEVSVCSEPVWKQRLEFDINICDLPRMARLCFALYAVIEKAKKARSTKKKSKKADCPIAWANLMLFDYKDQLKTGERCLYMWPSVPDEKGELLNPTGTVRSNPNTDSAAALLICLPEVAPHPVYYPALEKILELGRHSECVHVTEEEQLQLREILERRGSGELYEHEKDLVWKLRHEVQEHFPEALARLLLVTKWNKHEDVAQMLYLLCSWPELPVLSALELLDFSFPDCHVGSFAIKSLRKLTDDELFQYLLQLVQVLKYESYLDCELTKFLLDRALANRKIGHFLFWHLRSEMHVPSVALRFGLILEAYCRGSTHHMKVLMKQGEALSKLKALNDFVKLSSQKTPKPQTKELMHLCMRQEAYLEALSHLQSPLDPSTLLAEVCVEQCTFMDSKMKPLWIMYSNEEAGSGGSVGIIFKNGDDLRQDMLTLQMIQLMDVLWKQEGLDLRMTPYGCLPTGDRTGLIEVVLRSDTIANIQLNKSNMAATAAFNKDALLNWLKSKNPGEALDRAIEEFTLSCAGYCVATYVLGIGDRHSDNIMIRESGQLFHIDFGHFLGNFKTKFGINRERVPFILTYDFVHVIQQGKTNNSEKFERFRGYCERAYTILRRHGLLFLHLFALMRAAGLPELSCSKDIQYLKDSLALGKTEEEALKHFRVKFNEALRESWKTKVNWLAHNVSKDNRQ
T4 sequence (P27986 whole entry partner): as the sequence (P27986 whole entry partner) above
T3 sequence (P42338 whole entry): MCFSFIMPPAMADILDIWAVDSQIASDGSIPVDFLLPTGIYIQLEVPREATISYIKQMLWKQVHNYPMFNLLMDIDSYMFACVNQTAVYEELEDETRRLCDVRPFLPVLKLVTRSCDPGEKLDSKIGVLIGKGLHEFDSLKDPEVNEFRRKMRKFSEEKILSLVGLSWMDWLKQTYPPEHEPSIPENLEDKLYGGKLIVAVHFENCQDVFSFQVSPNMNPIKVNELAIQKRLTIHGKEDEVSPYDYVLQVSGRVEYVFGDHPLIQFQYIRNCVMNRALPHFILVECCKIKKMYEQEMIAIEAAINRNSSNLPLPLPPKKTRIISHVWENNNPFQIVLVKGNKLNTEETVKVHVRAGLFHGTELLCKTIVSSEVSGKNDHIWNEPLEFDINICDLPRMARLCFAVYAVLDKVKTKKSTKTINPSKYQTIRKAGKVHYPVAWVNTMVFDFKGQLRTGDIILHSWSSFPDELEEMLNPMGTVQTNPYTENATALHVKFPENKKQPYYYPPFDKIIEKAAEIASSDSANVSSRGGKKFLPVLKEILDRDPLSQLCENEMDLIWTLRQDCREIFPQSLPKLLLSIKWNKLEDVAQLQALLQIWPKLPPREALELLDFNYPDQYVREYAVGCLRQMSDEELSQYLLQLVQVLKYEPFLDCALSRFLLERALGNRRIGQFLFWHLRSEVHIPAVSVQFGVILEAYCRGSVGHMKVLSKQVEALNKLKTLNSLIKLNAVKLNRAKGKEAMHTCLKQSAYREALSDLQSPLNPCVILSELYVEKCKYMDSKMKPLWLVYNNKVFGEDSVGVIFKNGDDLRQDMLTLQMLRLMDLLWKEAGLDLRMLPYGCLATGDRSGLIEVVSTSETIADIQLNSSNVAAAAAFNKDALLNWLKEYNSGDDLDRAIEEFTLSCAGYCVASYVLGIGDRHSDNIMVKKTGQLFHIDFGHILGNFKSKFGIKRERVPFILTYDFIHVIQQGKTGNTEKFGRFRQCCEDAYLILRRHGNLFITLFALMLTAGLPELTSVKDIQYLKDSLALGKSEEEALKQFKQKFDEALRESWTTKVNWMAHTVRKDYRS
T3 sequence (P27986 whole entry partner): as the sequence (P27986 whole entry partner) above
T2 sequence (P48736 whole entry): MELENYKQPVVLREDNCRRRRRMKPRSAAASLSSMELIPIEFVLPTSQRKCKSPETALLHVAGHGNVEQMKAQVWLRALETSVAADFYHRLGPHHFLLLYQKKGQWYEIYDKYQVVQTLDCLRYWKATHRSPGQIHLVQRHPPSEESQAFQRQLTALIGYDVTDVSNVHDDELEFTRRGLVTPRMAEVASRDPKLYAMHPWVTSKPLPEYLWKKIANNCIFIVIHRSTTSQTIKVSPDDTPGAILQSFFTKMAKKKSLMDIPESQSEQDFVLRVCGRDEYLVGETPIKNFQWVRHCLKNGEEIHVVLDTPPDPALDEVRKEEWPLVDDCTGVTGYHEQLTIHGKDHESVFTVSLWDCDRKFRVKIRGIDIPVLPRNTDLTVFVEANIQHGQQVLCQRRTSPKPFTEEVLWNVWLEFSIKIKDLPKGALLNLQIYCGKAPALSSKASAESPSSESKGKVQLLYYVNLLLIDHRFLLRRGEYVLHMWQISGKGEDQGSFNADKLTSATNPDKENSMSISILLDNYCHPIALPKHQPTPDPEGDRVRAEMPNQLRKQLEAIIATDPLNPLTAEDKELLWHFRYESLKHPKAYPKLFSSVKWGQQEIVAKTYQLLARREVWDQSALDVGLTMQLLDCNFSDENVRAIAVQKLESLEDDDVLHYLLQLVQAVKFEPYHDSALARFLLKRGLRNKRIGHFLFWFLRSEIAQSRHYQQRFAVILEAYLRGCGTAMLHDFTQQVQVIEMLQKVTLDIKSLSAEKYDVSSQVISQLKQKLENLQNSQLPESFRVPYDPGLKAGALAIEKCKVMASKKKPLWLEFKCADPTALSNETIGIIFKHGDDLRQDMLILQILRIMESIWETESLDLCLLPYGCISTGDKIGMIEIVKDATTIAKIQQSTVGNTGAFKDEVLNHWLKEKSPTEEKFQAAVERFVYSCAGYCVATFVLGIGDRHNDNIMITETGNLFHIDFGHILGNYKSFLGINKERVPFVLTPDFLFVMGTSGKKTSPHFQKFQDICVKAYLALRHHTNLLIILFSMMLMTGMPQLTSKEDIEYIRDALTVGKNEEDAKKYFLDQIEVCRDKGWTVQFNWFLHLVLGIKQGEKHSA

SMILES | IC50 [1] | IC50 (MCF-7 cells) | IC50 (NIH3T3 cells) | also measured
CCOC(=O)C1(c2cc(-c3cnc(N)cc3C(F)(F)F)nc(N3CCOCC3)n2)CC1 [Compound S-2] | – | – | 5000 to 10000 nM | IC50 [2, 5]: 550 nM
C[C@@H]1COCCN1c1nc(-c2cnc(N)cc2C(F)(F)F)cc(C2(S(C)(=O)=O)CC2)n1 [Compound S-5] | – | – | 1000 to 3000 nM | –
Nc1cc(C(F)(F)F)c(-c2cc(C3(C(=O)N4CCCCC4)CC3)nc(N3CCOCC3)n2)cn1 [Compound S-7] | – | – | > 10000 nM | –
Nc1cc(C(F)(F)F)c(-c2cc(C3(CN4CCOCC4)CC3)nc(N3CCOCC3)n2)cn1 [Compound S-8, 5-(2-morpholino-6-(1-(morpholinomethyl)cyclopropyl)pyrimidin-4-yl)-4-(trifluoromethyl)pyridin-2-amine] | – | – | > 10000 nM | –
C[C@H]1COCCN1c1nc(-c2cnc(N)cc2C(F)(F)F)cc(C2(S(=O)(=O)c3ccccc3)CCC2)n1 [Compound S-15] | – | – | 5000 to 10000 nM | –
CNc1cc(C(F)(F)F)c(-c2cc(C3(S(C)(=O)=O)CC3)nc(N3CCOCC3)n2)cn1 [Compound S-36] | – | – | 3000 to 5000 nM | –
CC(C)(c1cc(-c2ccc(N)nc2)nc(N2CCOCC2)n1)S(C)(=O)=O [Compound S-39] | 513 nM | 441 nM | – | –
CS(=O)(=O)C1(c2cc(-c3ccc(N)nc3)nc(N3CCOCC3)n2)CC1 [Compound S-40] | 465 nM | 355 nM | – | IC50 [2, 5]: 92 nM
CC(C)(c1cc(-c2cnc(N)cc2C(F)(F)F)nc(N2CCOCC2)n1)n1ncc2ccccc21 [Compound S-56, 5-(6-(2-(1H-indazol-1-yl)propan-2-yl)-2-morpholinopyrimidin-4-yl)-4-(trifluoromethyl)pyridin-2-amine] | – | – | > 10000 nM | –

The next lines start with results.

IC50 [1] | IC50 (MCF-7 cells) | SMILES | IC50 (NIH3T3 cells) | also measured
596 nM | – | Nc1cc(C(F)(F)F)c(-c2cc(N3CCOCC3)nc(N3CCOCC3)n2)cn1 [BKM-120, reference compound] | – | –
2260 nM | 996 nM | CS(=O)(=O)C1(c2cc(-c3cnc(N)cc3C(F)(F)F)nc(N3CCOCC3)c2)CC1 [Comparative compound 1, 4-(1-(methylsulfonyl)cyclopropyl)-6-morpholino-4′-(trifluoromethyl)-2,3′bipyridyl-6′-amine, reference compound] | – | IC50 (T47D cells): 1220 nM
577 nM | 240 nM | CC(C)(O)c1cc(-c2cnc(N)cc2Cl)nc(N2CCOCC2)n1 [Compound S-63] | – | IC50 (PI3K-γ kinase (p110γ)): 428 nM; IC50 [3]: 228 nM; IC50 [2, 6]: 21 nM; IC50 [4]: 158 nM
330 nM | – | CC(C)(O)c1cc(-c2cnc(N)nc2C(F)(F)F)nc(N2CCOCC2)n1 [Compound S-64] | – | IC50 (PI3K-γ kinase (p110γ)): 431 nM; IC50 [3]: 27 nM; IC50 [2, 6]: 13 nM; IC50 [4]: 19 nM
